Experimental findings from patent US10660877B2 (BRISTOL-MYERS SQUIBB COMPANY, priority 2016, dated 2020) are described below.

One experiment has as its target human TLR7 (Homo sapiens (Human), UniProt Q9NYK1). The experiment in a line: TLR7 inhibition reporter assay (HEK-Blue cells, SEAP reporter, gardiquimod stimulation). The class given is cell-based.
The target of another experiment is human TLR8 (Homo sapiens (Human), UniProt Q9NR97). The experiment in a line: TLR8 inhibition reporter assay (HEK-Blue cells, SEAP reporter, R848 stimulation).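 Also: compounds tested from 0.05 nM to 50 µM, 22 h at 37 °C, SEAP measured with HEK-Blue Detection, inhibition relative to agonist plus DMSO versus a known inhibitor.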
human TLR8, sequence (Q9NR97 27-1041): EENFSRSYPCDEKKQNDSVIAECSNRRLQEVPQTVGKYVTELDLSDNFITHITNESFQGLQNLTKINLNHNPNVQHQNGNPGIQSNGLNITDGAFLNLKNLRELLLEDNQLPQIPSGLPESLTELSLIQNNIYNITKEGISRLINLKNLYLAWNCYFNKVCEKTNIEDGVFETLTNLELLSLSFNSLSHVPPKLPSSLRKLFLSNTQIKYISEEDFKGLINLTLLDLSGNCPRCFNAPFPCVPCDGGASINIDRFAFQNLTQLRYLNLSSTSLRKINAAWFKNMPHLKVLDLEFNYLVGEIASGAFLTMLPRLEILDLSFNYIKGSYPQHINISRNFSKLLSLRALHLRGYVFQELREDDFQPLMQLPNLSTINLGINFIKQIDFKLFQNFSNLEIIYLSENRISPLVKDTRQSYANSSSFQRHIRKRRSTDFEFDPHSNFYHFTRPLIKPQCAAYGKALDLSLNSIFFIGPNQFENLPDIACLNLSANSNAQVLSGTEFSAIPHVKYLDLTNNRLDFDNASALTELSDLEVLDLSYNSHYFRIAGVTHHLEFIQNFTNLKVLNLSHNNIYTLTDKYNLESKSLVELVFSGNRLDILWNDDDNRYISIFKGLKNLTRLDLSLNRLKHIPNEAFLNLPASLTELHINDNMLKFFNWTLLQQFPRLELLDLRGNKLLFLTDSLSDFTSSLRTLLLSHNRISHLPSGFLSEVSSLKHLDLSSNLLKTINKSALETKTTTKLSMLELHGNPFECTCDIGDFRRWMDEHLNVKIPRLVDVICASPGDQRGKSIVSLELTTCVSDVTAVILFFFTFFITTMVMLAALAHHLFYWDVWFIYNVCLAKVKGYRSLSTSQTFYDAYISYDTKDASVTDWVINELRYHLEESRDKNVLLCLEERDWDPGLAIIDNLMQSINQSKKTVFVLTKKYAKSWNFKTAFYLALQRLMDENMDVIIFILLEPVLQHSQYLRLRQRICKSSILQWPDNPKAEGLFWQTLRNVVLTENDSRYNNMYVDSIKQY
The target in another experiment is human TLR9 (Homo sapiens (Human), UniProt Q9NR96). The experiment in a line: TLR9 inhibition reporter assay (HEK-Blue cells, SEAP reporter, ODN2006 stimulation).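 Also: compounds tested over 0.05 nM to 50 µM, 22 h incubation, inhibition taken as SEAP signal drop from agonist plus DMSO wells toward a known inhibitor control.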 Background: In a reporter assay the amount or activity of a reporter protein is the signal.
human TLR9, sequence (Q9NR96 26-1032): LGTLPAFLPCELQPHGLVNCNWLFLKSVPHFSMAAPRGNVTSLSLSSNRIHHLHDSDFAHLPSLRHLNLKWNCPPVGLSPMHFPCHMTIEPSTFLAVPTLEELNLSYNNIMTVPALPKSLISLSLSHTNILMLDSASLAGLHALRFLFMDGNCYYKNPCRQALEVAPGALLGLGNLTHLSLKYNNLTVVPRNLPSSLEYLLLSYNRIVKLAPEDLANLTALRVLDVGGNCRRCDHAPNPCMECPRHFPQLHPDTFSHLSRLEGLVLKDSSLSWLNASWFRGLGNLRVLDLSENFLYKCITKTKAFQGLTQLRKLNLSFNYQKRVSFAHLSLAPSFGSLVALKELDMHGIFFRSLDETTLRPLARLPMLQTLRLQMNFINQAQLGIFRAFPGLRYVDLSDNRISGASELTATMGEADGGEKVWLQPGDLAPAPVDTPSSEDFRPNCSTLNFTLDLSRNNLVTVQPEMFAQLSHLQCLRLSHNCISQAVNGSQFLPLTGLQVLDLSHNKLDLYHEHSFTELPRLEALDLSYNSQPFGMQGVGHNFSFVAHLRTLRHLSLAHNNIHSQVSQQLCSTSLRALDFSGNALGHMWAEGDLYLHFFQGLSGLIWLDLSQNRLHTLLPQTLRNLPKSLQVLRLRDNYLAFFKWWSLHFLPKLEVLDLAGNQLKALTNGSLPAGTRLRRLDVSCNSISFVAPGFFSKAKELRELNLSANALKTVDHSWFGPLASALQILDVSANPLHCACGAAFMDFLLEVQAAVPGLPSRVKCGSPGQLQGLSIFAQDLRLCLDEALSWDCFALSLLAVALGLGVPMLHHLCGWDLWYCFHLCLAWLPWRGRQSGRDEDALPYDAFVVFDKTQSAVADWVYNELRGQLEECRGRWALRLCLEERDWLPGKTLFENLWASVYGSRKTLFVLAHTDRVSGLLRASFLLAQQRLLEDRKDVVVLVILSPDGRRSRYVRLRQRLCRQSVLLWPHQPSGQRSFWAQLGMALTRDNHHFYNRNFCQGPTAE
[1] abbreviates: HEK-Blue cells overexpressing human TLR7, gardiquimod 7.5 μM.
[2] abbreviates: read-out: TLR8 IC50, HEK-Blue cells overexpressing human TLR8, R848 15.9 μM.
[3] abbreviates: read-out: TLR9 IC50, HEK-Blue cells overexpressing human TLR9, ODN2006 5 nM.

pIC50: −log10 of the molar value. Where two headings read alike, the source gives them in different places.

human TLR7, sequence (Q9NYK1 27-1049): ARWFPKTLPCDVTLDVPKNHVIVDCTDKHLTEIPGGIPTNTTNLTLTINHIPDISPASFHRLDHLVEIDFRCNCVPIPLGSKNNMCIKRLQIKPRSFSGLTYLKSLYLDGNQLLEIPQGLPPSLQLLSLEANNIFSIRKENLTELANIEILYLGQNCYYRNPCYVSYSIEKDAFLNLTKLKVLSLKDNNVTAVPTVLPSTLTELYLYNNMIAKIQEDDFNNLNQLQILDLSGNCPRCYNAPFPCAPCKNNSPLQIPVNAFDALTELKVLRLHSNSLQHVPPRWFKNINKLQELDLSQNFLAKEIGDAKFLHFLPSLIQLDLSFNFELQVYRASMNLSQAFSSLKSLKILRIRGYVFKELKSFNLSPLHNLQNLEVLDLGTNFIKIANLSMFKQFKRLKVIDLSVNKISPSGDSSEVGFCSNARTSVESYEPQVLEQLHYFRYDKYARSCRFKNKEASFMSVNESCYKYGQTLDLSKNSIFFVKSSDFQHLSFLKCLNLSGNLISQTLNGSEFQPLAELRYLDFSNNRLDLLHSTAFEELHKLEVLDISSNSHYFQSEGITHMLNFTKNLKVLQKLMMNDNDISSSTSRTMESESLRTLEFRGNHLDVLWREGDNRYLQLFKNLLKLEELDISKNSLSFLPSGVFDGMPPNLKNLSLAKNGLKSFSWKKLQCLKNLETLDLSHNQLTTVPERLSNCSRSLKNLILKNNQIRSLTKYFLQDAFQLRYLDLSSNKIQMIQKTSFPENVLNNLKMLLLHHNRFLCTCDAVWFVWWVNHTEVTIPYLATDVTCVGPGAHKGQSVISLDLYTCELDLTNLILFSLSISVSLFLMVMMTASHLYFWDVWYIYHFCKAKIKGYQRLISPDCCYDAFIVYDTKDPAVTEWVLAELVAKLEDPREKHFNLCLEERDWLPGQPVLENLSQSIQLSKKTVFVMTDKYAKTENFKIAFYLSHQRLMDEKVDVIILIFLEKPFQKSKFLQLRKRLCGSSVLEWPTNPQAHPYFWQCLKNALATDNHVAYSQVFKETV

On to `Cc1cc(-c2[nH]c3ccc(C4CCN(C(=O)CNC(C)C)CC4)cc3c2C(C)C)cc(C)n1` [Example 344, 1-(4-(2-(2,6-dimethylpyridin-4-yl)-3-isopropyl-1H-indol-5-yl)piperidin-1-yl)-2-(isopropylamino)ethan-1-one], for which the negative-log IC50 (pIC50) is 8.60 against human TLR7 (setting [1]), 8.08 at human TLR8 (setting [2]) and 6.31 at human TLR9 (setting [3]).
Take `CCc1c(-c2ccnc(C)c2)[nH]c2ccc(C3CCN(C(=O)[C@H]4CC(F)(F)CN4)CC3)cc12` [Example 623, (R)-(4,4-difluoropyrrolidin-2-yl)(4-(3-ethyl-2-(2-methylpyridin-4-yl)-1H-indol-5-yl)piperidin-1-yl)methanone]: the negative logarithm of the IC50 (pIC50) was 6.70 against human TLR7 (setting [1]), 6.65 on human TLR8 (setting [2]) and 4.84 at human TLR9 (setting [3]).
Take `Cc1cc(-c2[nH]c3ccc(C4CCN(CC(=O)N(C)CC(C)C)CC4)cc3c2C(C)C)cc(C)n1` [Example 245, 2-(4-(2-(2,6-dimethylpyridin-4-yl)-3-isopropyl-1H-indol-5-yl)piperidin-1-yl)-N-isobutyl-N-methylacetamide]: the pIC50 was 8.02 against human TLR7 (setting [1]), 7.49 at human TLR8 (setting [2]) and 6.02 on human TLR9 (setting [3]).
On to `Cc1cc(-c2[nH]c3ccc(C4CCN(C(=O)CC5C(=O)NC(=O)N5C)CC4)cc3c2C(C)C)cc(C)n1` (stereo not drawn) [Example 130, 5-(2-(4-(2-(2,6-dimethylpyridin-4-yl)-3-isopropyl-1H-indol-5-yl)piperidin-1-yl)-2-oxoethyl)-1-methylimidazolidine-2,4-dione], for which the pIC50 against human TLR7 (setting [1]) was 7.53; on human TLR8 (setting [2]) it was 7.13; at human TLR9 (setting [3]), 4.93.
Consider `CCCN1CCC(c2ccc3[nH]c(-c4cc(C)nc(C)c4)c(C(C)C)c3c2)CC1` [Example 323, 2-(2,6-dimethylpyridin-4-yl)-3-isopropyl-5-(1-propylpiperidin-4-yl)-1H-indole], for which the values for the pIC50 on human TLR7 (setting [1]), on human TLR8 (setting [2]) and on human TLR9 (setting [3]) were 8.85, 8.41 and 6.44, respectively.
The corresponding values for `Cc1cc(-c2[nH]c3ccc(C4CCN(C(=O)CN(C)CC(C)C)CC4)cc3c2C(C)C)cc(C)n1` [Example 355, 1-(4-(2-(2,6-dimethylpyridin-4-yl)-3-isopropyl-1H-indol-5-yl)piperidin-1-yl)-2-(isobutyl (methyl)amino)ethan-1-one] are 8.06, 7.47 and 5.97.
Regarding `Cc1cc(-c2[nH]c3ccc(C4CCNCC4)cc3c2C(C)C)c(N)cn1` [Example 10, 4-(3-isopropyl-5-(piperidin-4-yl)-1H-indol-2-yl)-6-methylpyridin-3-amine], the pIC50 was 8.29 at human TLR7 (setting [1]), 8.20 on human TLR8 (setting [2]) and 6.45 on human TLR9 (setting [3]).
With `Cc1cc(-c2[nH]c3ccc(C4CCN(C(=O)C(=O)NCCc5ccncc5)CC4)cc3c2C(C)C)cc(C)n1` [Example 860, 2-(4-(2-(2,6-dimethylpyridin-4-yl)-3-isopropyl-1H-indol-5-yl)piperidin-1-yl)-2-oxo-N-(2-(pyridin-4-yl)ethyl)acetamide], the pIC50 was 8.01 at human TLR7 (HEK-Blue cells, gardiquimod 7.5 μM); 7.05 at human TLR8 (read-out: TLR8 IC50, HEK-Blue cells, R848 15.9 μM); 4.81 on human TLR9 (read-out: TLR9 IC50, HEK-Blue cells, ODN2006 5 nM).
Turning to `COCCN1CCN(C(=O)CN2CCC(c3ccc4[nH]c(-c5cc(C)nc(C)c5)c(C(C)C)c4c3)CC2)CC1` [Example 265, 2-(4-(2-(2,6-dimethylpyridin-4-yl)-3-isopropyl-1H-indol-5-yl)piperidin-1-yl)-1-(4-(2-methoxyethyl)piperazin-1-yl)ethan-1-one], the pIC50 was 8.82 against human TLR7 (setting [1]), 8.55 on human TLR8 (setting [2]) and 7.14 on human TLR9 (setting [3]).
For `Cc1cc(-c2[nH]c3ccc(C4CCN(Cc5cn(C)nn5)CC4)cc3c2C(C)C)cc(C)n1` [Example 442, 2-(2,6-dimethylpyridin-4-yl)-3-isopropyl-5-(1-((1-methyl-1H-1,2,3-triazol-4-yl)methyl)piperidin-4-yl)-1H-indole], the pIC50 was 8.28 against human TLR7 (setting [1]), 8.17 on human TLR8 (setting [2]) and 5.92 at human TLR9 (setting [3]).
On to `Cc1cc(-c2[nH]c3ccc(C4CCN(CC5CCCCC5)CC4)cc3c2C(C)C)cc(C)n1` [Example 328, 5-(1-(cyclohexylmethyl)piperidin-4-yl)-2-(2,6-dimethylpyridin-4-yl)-3-isopropyl-1H-indole], for which the pIC50 against human TLR7 (setting [1]) is 7.30; at human TLR8 (setting [2]), 7.11; on human TLR9 (setting [3]), 5.14.
For the molecule `Cc1cc(-c2[nH]c3ccc(C4CCN(CC(=O)NCCC(C)(C)C)CC4)cc3c2C(C)C)cc(C)n1` [Example 236, N-(3,3-dimethylbutyl)-2-(4-(2-(2,6-dimethylpyridin-4-yl)-3-isopropyl-1H-indol-5-yl)piperidin-1-yl)acetamide], the pIC50 was 7.33 on human TLR7 (setting [1]), 7.17 on human TLR8 (setting [2]) and 5.68 on human TLR9 (setting [3]).
The corresponding values for `Cc1cc(-c2[nH]c3ccc(C4CCN(CC(=O)N5C[C@@H](C(F)(F)F)C[C@H]5CO)CC4)cc3c2C(C)C)cc(C)n1` [Example 291, 2-(4-(2-(2,6-dimethylpyridin-4-yl)-3-isopropyl-1H-indol-5-yl)piperidin-1-yl)-1-((2S,4S)-2-(hydroxymethyl)-4-(trifluoromethyl)pyrrolidin-1-yl)ethan-1-one] are 7.74, 6.91 and 5.50.
As for `Cc1cc(-c2[nH]c3ccc(C4CCN(CC(=O)N(C)CC(C)(C)O)CC4)cc3c2C(C)C)cc(C)n1` [Example 305, 2-(4-(2-(2,6-dimethylpyridin-4-yl)-3-isopropyl-1H-indol-5-yl)piperidin-1-yl)-N-(2-hydroxy-2-methylpropyl)-N-methylacetamide], the pIC50 is 8.31 against human TLR7 (setting [1]), 7.95 on human TLR8 (setting [2]) and 6.57 on human TLR9 (setting [3]).
With `CNCCN1CCC(c2ccc3[nH]c(-c4ccnc(Cl)c4)c(C)c3c2)CC1` [Example 751, 2-(4-(2-(2-chloropyridin-4-yl)-3-methyl-1H-indol-5-yl)piperidin-1-yl)-N-methylethan-1-amine], the pIC50 was 6.33 against human TLR7 (setting [1]), 7.25 on human TLR8 (setting [2]) and 6.49 on human TLR9 (setting [3]).
Turning to `Cc1cc(-c2[nH]c3ccc(C4CCN(C(=O)[C@@H]5CCC[C@H](N)C5)CC4)cc3c2C(C)C)ccn1` [Example 576, ((1R,3S)-3-aminocyclohexyl)(4-(3-isopropyl-2-(2-methylpyridin-4-yl)-1H-indol-5-yl)piperidin-1-yl)methanone], the pIC50 on human TLR7 (setting [1]) is 7.82; on human TLR8 (setting [2]), 7.62; at human TLR9 (setting [3]), 6.14.
`Cc1cc(-c2[nH]c3ccc(C4CCN(CC(=O)N(C)CCC5(O)CCCC5)CC4)cc3c2C(C)C)cc(C)n1` [Example 303, 2-(4-(2-(2,6-dimethylpyridin-4-yl)-3-isopropyl-1H-indol-5-yl)piperidin-1-yl)-N-(2-(1-hydroxycyclopentyl)ethyl)-N-methylacetamide]: the pIC50 against human TLR7 (setting [1]) is 8.11; on human TLR8 (setting [2]), 7.45; at human TLR9 (setting [3]), 6.40.
For the molecule `Cc1cc(-c2[nH]c3ccc(C4CCN(C(=O)CN5CCCS5(=O)=O)CC4)cc3c2C(C)C)cc(C)n1` [Example 152, 1-(4-(2-(2,6-dimethylpyridin-4-yl)-3-isopropyl-1H-indol-5-yl)piperidin-1-yl)-2-(1,1-dioxidoisothiazolidin-2-yl)ethan-1-one], the pIC50 is 8.30 at human TLR7 (setting [1]), 7.30 at human TLR8 (setting [2]) and 4.52 at human TLR9 (setting [3]).
As for `Cc1cc(-c2[nH]c3ccc(C4CCN(C5CCN(C(C)C)CC5)CC4)cc3c2C(C)C)ccn1` [Example 701, 3-isopropyl-5-(1′-isopropyl-[1,4′-bipiperidin]-4-yl)-2-(2-methylpyridin-4-yl)-1H-indole], the pIC50 on human TLR7 (setting [1]) is 8.19; on human TLR8 (setting [2]) it was 8.24; at human TLR9 (setting [3]) it was 6.79.
For the molecule `Cc1cc(-c2[nH]c3ccc(C4CCN(CC(=O)N5CCCC(F)C5)CC4)cc3c2C(C)C)cc(C)n1` (stereo not drawn) [Example 258, 2-(4-(2-(2,6-dimethylpyridin-4-yl)-3-isopropyl-1H-indol-5-yl)piperidin-1-yl)-1-(3-fluoropiperidin-1-yl)ethan-1-one], the pIC50 against human TLR7 (setting [1]) was 8.12; at human TLR8 (setting [2]), 7.81; at human TLR9 (setting [3]), 6.04.
On to `Cc1cc(-c2[nH]c3ccc(C4CCN(Cc5nnc(C6CC6)o5)CC4)cc3c2C(C)C)cc(C)n1` [Example 448, 2-cyclopropyl-5-((4-(2-(2,6-dimethylpyridin-4-yl)-3-isopropyl-1H-indol-5-yl)piperidin-1-yl)methyl)-1,3,4-oxadiazole], for which the pIC50 against human TLR7 (setting [1]) is 7.29; at human TLR8 (setting [2]) it was 7.25; on human TLR9 (setting [3]), 4.32.
As for `Cc1cc(-c2[nH]c3ccc(C4CCN(CC(=O)N5CCCCC5)CC4)cc3c2C(C)C)cc(C)n1` [Example 241, 2-(4-(2-(2,6-dimethylpyridin-4-yl)-3-isopropyl-1H-indol-5-yl)piperidin-1-yl)-1-(piperidin-1-yl)ethan-1-one], the pIC50 on human TLR7 (setting [1]) was 8.19; at human TLR8 (setting [2]), 7.97; at human TLR9 (setting [3]) it was 6.35.
Consider `Cc1cc(-c2[nH]c3ccc(C4CCN(Cc5cncs5)CC4)cc3c2C(C)C)c(F)cn1` [Example 688, 5-((4-(2-(5-fluoro-2-methylpyridin-4-yl)-3-isopropyl-1H-indol-5-yl)piperidin-1-yl)methyl)thiazole], for which the pIC50 at human TLR7 (setting [1]) is 7.92; at human TLR8 (setting [2]), 8.70; on human TLR9 (setting [3]) it was 5.21.
As for `Cc1cc(-c2[nH]c3ccc(C4CCN(CC(F)(F)F)CC4)cc3c2C(C)C)cc(C)n1` [Example 310, 2-(2,6-dimethylpyridin-4-yl)-3-isopropyl-5-(1-(2,2,2-trifluoroethyl)piperidin-4-yl)-1H-indole], the pIC50 against human TLR7 (setting [1]) is 6.64; on human TLR8 (setting [2]) it was 6.05; at human TLR9 (setting [3]) it was 4.52.

Usually pIC50 stands for the negative decadic logarithm of the IC50, by convention in mol/L.
